{
  "source": "patent US11912660B2",
  "about": "“S6K1 protein kinase inhibitors as cancer therapeutics” (Xavier University of Louisiana, priority 2020, dated 2024)",
  "key": {"RPS6K1 [1]": {"molecular_target": "T1, RPS6K1 (Homo sapiens (Human), UniProt P23443)", "T1 sequence (P23443 whole entry)": "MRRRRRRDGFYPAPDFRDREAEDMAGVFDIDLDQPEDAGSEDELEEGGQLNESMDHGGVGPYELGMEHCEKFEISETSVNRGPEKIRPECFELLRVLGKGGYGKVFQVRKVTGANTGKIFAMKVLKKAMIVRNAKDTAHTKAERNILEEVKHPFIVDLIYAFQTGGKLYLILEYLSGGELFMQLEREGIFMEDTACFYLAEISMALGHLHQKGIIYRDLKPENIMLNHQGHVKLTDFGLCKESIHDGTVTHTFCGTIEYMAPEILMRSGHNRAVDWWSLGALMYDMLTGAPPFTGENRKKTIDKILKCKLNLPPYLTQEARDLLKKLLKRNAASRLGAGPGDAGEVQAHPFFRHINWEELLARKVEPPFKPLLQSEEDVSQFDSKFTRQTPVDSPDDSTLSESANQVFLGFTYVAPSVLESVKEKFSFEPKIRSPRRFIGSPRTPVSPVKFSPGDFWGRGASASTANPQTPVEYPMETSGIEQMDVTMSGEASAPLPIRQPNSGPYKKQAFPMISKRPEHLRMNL", "assay": "High-throughput screening and IC50 determination for inhibition of RPS6K1 (FRET based assay by ThermoFisher)", "type": "biochemical", "conditions": "dose response curve", "source_text": "These three compounds were then subjected to IC50 value determination (dose response curve) using the same FRET based assay by ThermoFisher (Table 5)."}, "[2]": {"test_system": "ER positive breast cancer cell line MCF7", "assay": "MTT assay growth inhibition", "type": "cell-based", "conditions": "FIG. 1B", "source_text": "(§1) Cell viability assays used the methods outlined in an earlier publication: Identification of New Mono/Dihydroxynaphthoquinone as Lead Agents that Inhibit the Growth of Refractive and Triple-negative Breast Cancer Cell lines. Schroeder, R.; Sfondouris, M.; Goyal, N.; Komati, R.; Weerathunga, A.; Gettridge, C.; Stevens, C. L. K.; Jones, F. E.; Sridhar, J. ACS Omega, 2019 Jun 19. 4(6):10610-10619.\n(§2) RPS6K1 is known to play a critical role in several cancers including HER2 positive breast cancer, ER positive breast cancer, prostate cancer and small cell lung cancer. To verify whether RPS6K1 inhibitors of the instant disclosure could inhibit growth of these types of cancers, MTT assays were performed using the HER2 positive breast cancer cell line SKBR3, ER positive breast cancer cell line MCF7, and the prostate cancer cell line DU-145. The MTT assay is a colorimetric assay for assessing cell metabolic activity. NAD(P)H-dependent cellular oxidoreductase enzymes may, under defined conditions, reflect the number of viable cells present. These enzymes are capable of reducing the tetrazolium dye MTT 3-(4,5-dimethylthiazol-2-yl)-2,5-diphenyltetrazolium bromide to its insoluble formazan, which has a purple color."}, "[3]": {"test_system": "HER2 positive breast cancer cell line SKBR3", "assay": "MTT assay growth inhibition", "type": "cell-based", "conditions": "for IC50: Homo sapiens; for growth inhibition: SKBR3, MTT, FIG. 1A", "source_text": "as §1, §2"}, "RPS6K1 [4]": {"molecular_target": "T1, RPS6K1", "assay": "High-throughput screening and IC50 determination for inhibition of RPS6K1 (FRET based assay by ThermoFisher)", "type": "biochemical", "conditions": "table head prints 10 µM; text says 10 μM concentration"}, "[5]": {"test_system": "prostate cancer cell line DU-145", "assay": "MTT assay growth inhibition", "type": "cell-based", "conditions": "DU-145, MTT, FIG. 1C", "source_text": "as §1, §2"}, "[6]": {"conditions": "SK-BR-3, SKBR3 breast cancer cell line, MTT, read-out: IC50 values of growth inhibition"}},
  "note": "Where two headings read alike, the source gives them in different places.",
  "data": [
    {"smiles": "Nc1cc(NC(=O)c2ccccc2)cc2c1C(=O)NC2=O", "note": "[RJ-19]", "values": [
      {"measurement": "IC50", "setting": "RPS6K1 [1]", "value": 3.48, "unit": "µM"},
      {"measurement": "growth inhibition", "setting": "[2]", "value": "not as effective"},
      {"measurement": "IC50", "setting": "[3]; [6]", "value": 3.3, "unit": "µM"},
      {"measurement": "growth inhibition", "setting": "[3]", "value": "showed inhibition"},
      {"measurement": "RPS6K1% inhibition at 10 µM compound concentration", "setting": "RPS6K1 [4]", "value": 71, "unit": "%"}
    ]},
    {"smiles": "Nc1cc(NC(=O)c2cc([N+](=O)[O-])cc([N+](=O)[O-])c2)cc2c1C(=O)NC2=O", "note": "[RJ-28]", "values": [
      {"measurement": "IC50", "setting": "RPS6K1 [1]", "value": 2.56, "unit": "µM"},
      {"measurement": "growth inhibition", "setting": "[2]", "value": "excellent growth inhibition"},
      {"measurement": "IC50", "setting": "[3]; SK-BR-3, read-out: IC50 values of growth inhibition", "value": 4.7, "unit": "µM"},
      {"measurement": "growth inhibition", "setting": "[3]", "value": "excellent growth inhibition"},
      {"measurement": "growth inhibition", "setting": "[5]", "value": "excellent growth inhibition"},
      {"measurement": "RPS6K1% inhibition at 10 µM compound concentration", "setting": "RPS6K1 [4]", "value": 79, "unit": "%"}
    ]},
    {"smiles": "Nc1cc(NC(=O)c2ccccc2Br)cc2c1C(=O)NC2=O", "note": "[RJ-22]", "values": [
      {"measurement": "IC50", "setting": "RPS6K1 [1]", "value": "> 2.78", "unit": "µM"},
      {"measurement": "growth inhibition", "setting": "[2]", "value": "excellent growth inhibition"},
      {"measurement": "IC50", "setting": "[3]; [6]", "value": 1.9, "unit": "µM"},
      {"measurement": "growth inhibition", "setting": "[3]", "value": "excellent growth inhibition"},
      {"measurement": "growth inhibition", "setting": "[5]", "value": "excellent growth inhibition"},
      {"measurement": "RPS6K1% inhibition at 10 µM compound concentration", "setting": "RPS6K1 [4]", "value": 86, "unit": "%"}
    ]}
  ]
}
